Measured values as given in patent US20240002547A1, “T[…]-TARGETING CONSTRUCTS AND USES THEREOF” (AEBI LTD., priority 2016, published 2024).
Positions of bridges follow the written chain, without caps; N, C: chain ends. No end group written: not given here.

What was measured:
[1] = molecular target: human Epidermal Growth Factor Receptor (EGFR) (Homo sapiens, UniProt P00533); experiment: Screening of cyclopeptides binding to human EGFR
Experimental: Using the technique described in WO 2007/010525, a series of new peptides (cyclopeptides) binding to human Epidermal Growth Factor Receptor (EGFR) were generated and tested. After identification of several potential peptide, a few further cycles of optimization were performed.

human EGFR = molecular target: T1, human EGFR (Homo sapiens, UniProt P00533); experiment: EGFR autophosphorylation ELISA in A431 cells; type: cell-based
T1 construct: human EGFR in human epidermoid carcinoma cell line A431; endogenous in cells; host or cells: A431
Experimental: The effect of several peptides on the phosphorylation levels of human EGFR in human epidermoid carcinoma cell line A431 was assessed by ELISA test. Briefly, exponentially growing A431 cell culture were detaches from the flask with 0.25% trypsin/EDTA solution, and 200 μl of cell suspension were transferred to 96-well plates at the concentration of 2×10^5 cells/ml and grown for about 3 days. Following medium exchange, 50 μl EGF dilutions and EGF+peptides (50 ng/ml and 0.2 mg/ml, respectively) were added. The plate was incubated for 7.5 min at 37° C. EGF-containing medium was removed and the cells were fixed by 150 ul of fixing solution and incubated for 20 min. at room temperature, following which the plate was washed 2 times with triton washing solution. The level of phosphorylates was assessed by incubation with phospho-EGFR (Tyr1045) antibody as a primary antibody and Anti-rabbit IgG as a secondary antibody. […] The normalized percent of inhibition (of the EGFR auto-phosphorylation is presented in FIG. 11 and Table 4. The normalized percent of inhibition is calculated as the fluorescence signal of the test item divided by the fluorescence signal of the control that contains no test item, with the same concentration of EGF.
Efficacy of different concentration of the selected peptide was assessed by ELISA in a similar was as in Example 12. […]

[2] = In vivo stability of fluorescently marked peptide in blood after tail vein injection; conditions: mice
Experimental: The stability of the fluorescently marked peptide E13.3 alone or bound to 8-armed PEG was evaluated in vivo by injecting the compounds to the tail vein of mice. The blood of the animals was analyzed for the presence of the peptide (fluorescence) at different time intervals. It can be clearly seen from the result presented in FIG. 14 that t0.5 of the free peptide is much shorter (about several minutes) than that of the peptides bound to PEG (t0.5 of about 3.5 hours).

eEF2 = molecular target: T2, eEF2 (Homo sapiens, UniProt P13639); experiment: in vitro transcription/translation system (HeLa lysate, 1-Step Human Coupled IVT Kit, pCFE-GFP DNA); type: biochemical; conditions: peptide 5 μM; 4 hr at 30° C.; versus positive control without peptide and non eEF2-binding control peptide
T2 construct: in vitro transcription/translation system using HeLa Lysate system; host or cells: HeLa lysate (1-Step Human Coupled IVT Kit-DNA)
Experimental: The effect of Tox1 and Tox2 was tested in the in vitro transcription/translation system using HeLa Lysate system 1-Step Human Coupled IVT Kit-DNA (ThermoFisher Scientific). The following peptides were tested: GW (Tox1), DRB RB, TB2 (Tox2), and BW. In addition, a non eEF2-binding control peptide, GR, was also tested.
The IVT Kit components were mixed, and one portion was taken out to serve as a negative control. The rest of the mix was supplemented with pCFE-GFP DNA. This DNA, when transcribed and translated gives a fluorescence protein, GFP. The extent of fluorescence gives a measure of the extent of protein synthesis.
The mix was split into […] aliquots. Each aliquot was supplemented with lml of one concentration of a specific peptide. A positive control was supplemented with lml of PBS. The reaction mixtures were incubated 4 hr at 30° C.
[…] of PBS were added to each reaction mixtures. The mixtures were transferred to a 96 well black ELISA plate, and the fluorescence was measured at ex/em 482/512 nm.

[3] = molecular target: T3, eEF2 (Human; Yeast derived) (Homo sapiens, UniProt P13639); experiment: ELISA binding of phage-displayed peptides to eEF2 or BSA; conditions: M13 phages expressing the peptide; read after 1.5 min and 30 min; BSA negative control
T3 construct: host or cells: yeast
Experimental: Binding of Tox 1 and Tox2 to eEF2 was tested by ELISA using eEF2 or BSA as ligands.
0.25 μg of target proteins, eEF2 (Human; Yeast derived) or BSA (negative control) were applied to several wells of maxisorp plate (NUNC) in 50 μl PBS and incubated over night at 4° C. The solutions were removed, and each well was supplemented with 280 μl blocking solution (BSA 2 mg/ml). The plate was incubated 1 hr at 25° C.
To 1.5 ml tubes 100 μl of blocking solution+10^9 pfu (plaque forming units) of M13 phages that express the following peptides: eEF2-binding: RB, LBR1, TB2 (Tox2), Y02, GW (Tox1), DRB, PY, BW were added. The plate was incubated 1 hr at 25° C. The solution were discarded and the wells were washed 7 times with 280 μl washing solution (Tween 20 0.05%).
Each well was supplemented with 50 μl of HRP/Anti-M13 Monoclonal Conjugate (GE Healthcare) diluted 1:5000. The plate was incubated 1 hr at 25° C. The solutions were discarded and the wells were washed 7 times with 280 μl washing solution (Tween 20 0.05%). Each well was supplemented with 50 μl of TMB (T0440; Sigma).
The plate was photographed using a scanner after incubation time of 1.5 min and 30 min.

human PD-L1 = human PD-L1 (Homo sapiens, UniProt Q9NZQ7); experiment: Screening of cyclopeptides binding to human PD-L1
Experimental: Using the technique described in WO 2007/010525, a series of new peptides (cyclopeptides) binding to binding to a human PD-L1 were generated and tested. After identification of several potential peptides, a few further cycles of optimization were performed.

NCI-H1650 tumor = experiment: Accumulation of fluorescein-labelled E13.3-PEG in kidney, liver and tumor of xenograft mice; type: in vivo
Experimental: E13.3-PEG was labeled with Flourescein and injected IV to Xenograft mice bearing subcutaneous NCI-H1650 tumor (lung cancer). Following anesthesia, kidney, liver and tumor were collected at specific time points and the fluorescence was measured.

FaDu = experiment: Viability of FaDu cells, alamarBlue; type: cell-based, human; conditions: all tested concentrations
Experimental: (§1) The anti-cancer activity of E13.3 was assessed using several cancer cell lines (A549—human lung carcinoma cell line and FaDu—human pharyngeal carcinoma cell line). The cell cultures were incubated in the presence or absence of E13.3 (at different concentrations) and tested for viability using alamarBlue reagent. The results are presented on FIG. 15.

A549 = experiment: Viability of A549 cells, alamarBlue; type: cell-based, human; conditions: all tested concentrations
Experimental: as §1

MCF-7 cells = experiment: Toxicity of PEG constructs on MCF-7 cells, microscope images after 48 hours; type: cell-based, human
Experimental: (§2) A construct comprising a multi-arm-PEG scaffold bound to E13.3 targeting peptide having the sequence SEQ ID NO: 1 ([…]) and a toxin selected from BIMBH3 (referred also as BIM and having the sequence SEQ ID NO: 5 […]) or a combination of Tox1 and Tox2 was generated. The scaffolds were prepared as described in Example 5 and is denoted as PEG-E13.3-Tox1-Tox2 and PEG-13.3-BIM, accordingly
(§3) A431 cells (human squamous carcinoma express about 100,000 copies of EGFR on each cell) and MCF-7 cells (breast cancer cell expressing about 3,000 copies of EGFR on each cell) were thawed and cultivated to achieve exponentially growing cultures. Cells were collected, counted and seeded at the density of 7,000 cells/well and 5,000 cells/well, respectively, in a 96 well tissue culture plate.
(§4) The plates were incubated until the next day at the following conditions: 37±1° C., humidified, and 5±0.5% CO2/air, to enable cells adherence to the wells.
(§5) The cell viability of A549 cell was tested using Alamar Blue viability assay. At the next day following the seeding, Growth Media was replaced with 200 μl Assay Media that contained 2% FBS and Test Items at different concentrations of the construct (1, 3 and 8 μM), or Vehicle Control (PBS; concentration-0). Plates were incubated at 37±1° C., humidified 5±0.5% CO2/air. […]

A431 cells = experiment: Toxicity of PEG constructs on A431 cells, microscope images after 48 hours; type: cell-based, human
Experimental: as §2, §3, §4, §5

[4] = 1, 3 and 8 μM, 48 hours, images

Sequence of human PD-L1 (Q9NZQ7 19-290): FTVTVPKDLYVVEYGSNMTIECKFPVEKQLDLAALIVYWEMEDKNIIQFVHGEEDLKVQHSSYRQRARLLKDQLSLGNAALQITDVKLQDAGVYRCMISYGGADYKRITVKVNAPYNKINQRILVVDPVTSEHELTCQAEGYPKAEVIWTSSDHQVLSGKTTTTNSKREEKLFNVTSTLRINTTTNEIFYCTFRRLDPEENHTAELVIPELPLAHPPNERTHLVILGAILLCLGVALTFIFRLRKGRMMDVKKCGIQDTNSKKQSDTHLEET

CHPGDKQEDPNCLQADK [E13.3]
affinity to the receptor at its binding site [1]: high affinity
Normalized Percent of EGFR autophosphorylation inhibition (human EGFR; A431, EGF 50 ng/ml, peptide 0.2 mg/ml, 7.5 min at 37° C., phospho-EGFR (Tyr1045)): 99.4%
IC50 (human EGFR; Example 12, read-out: calculated IC50 of EGFR autophosphorylation inhibition): 2 µM
t0.5 in blood ([2]; free peptide): about several

Cys-Arg-Arg-Gly-Ser-Arg-Ala-Ser-Gly-Ala-His-Cys (CRRGSRASGAHC; disulfide 1-12) [Tox2]
GFP fluorescence (extent of protein synthesis) (eEF2): highest effect
binding to eEF2 (ELISA signal) [3]: strongest effect

Cys-Ser-Ala-Arg-Trp-Gly-Pro-Thr-Met-Pro-Trp-Cys (CSARWGPTMPWC; disulfide 1-12) [Tox1]
GFP fluorescence (extent of protein synthesis) (eEF2): highest effect

CysGluGlyLeuProAlaAspTrpAlaAlaAlaCys (CEGLPADWAAAC; also: cyclic, mode not given here) [PD-L1-GR]
affinity to the receptor at its binding site (human PD-L1): high affinity

E13.3-PEG: E13.3 bound to 8 arm PEG Succinimidyl Carboxymethyl Ester, MW 73,000 (Ac-CHPGDKQEDPNCLQADK; not fully specified; cysteine pairing not given here; also: one amine Dde-protected, site not given here)
interaction with and internalization by cancer cells isolated from tumor (NCI-H1650 tumor; 1 hour and 24 hour after IV injection): most of the cancer cells interact with E13.3-PEG and internalize the fluorescent peptide
fluorescence in kidney and liver (NCI-H1650 tumor; IV, NCI-H1650 xenograft mice): fast increase in the fluorescence in kidney and liver with a typical elimination curve afterwards
fluorescence in tumor (cancer cells) (NCI-H1650 tumor; IV, NCI-H1650 xenograft mice): accumulated in the cancer cells
viability of cancer cells (FaDu): successfully reduce the viability
t0.5 in blood ([2]; bound to 8-armed PEG): about 3.5 hours
viability of cancer cells (A549): successfully reduce the viability

PEG-E13.3-Tox1-Tox2: multi-arm-PEG scaffold bound to E13.3 targeting peptide and a combination of Tox1 and Tox2 (peptide 1 Ac-CHPGDKQEDPNCLQADK; peptide 2 CSARWGPTMPWC; peptide 3 CRRGSRASGAHC; not fully specified (bridges); cysteine pairing not given here; also: multi-arm PEG scaffold carrying E13.3, Tox1 and Tox2)
effect on cell aggregates / proportion of dead cells (MCF-7 cells; [4]): proportion of dead cells increased
potency of cell death compared with the BIM construct (MCF-7 cells; images at 48 hours): more potent
effect on cell aggregates / proportion of dead cells (A431 cells; [4]): proportion of dead cells increased
potency of cell death compared with the BIM construct (A431 cells; images at 48 hours): more potent
